Source: ChEMBL document CHEMBL5724914, “Linking interpersonal differences in gut microbiota composition and drug biotransformation activity” (2024)

Legend:
[1] = (§1) The drug is tested on Z-028 corresponding to mouse gut metagenome with ENA study accession number: PRJEB37062 and ENA sample accession number: ERS12561827 for biotransformation under anaerobic condition. The drug concentrations were measured over 9 timepoints collected between 0 and 24 hours of incubation by liquid-chromatography-coupled mass spectrometry (LC–MS); details: 2 µM
[2] = as §1, with “Z-018” for “Z-028”, “pig” for “mouse”, “ERS12561817” for “ERS12561827”; details: 2 µM
[3] = as §1, with “Z-011” for “Z-028”, “ERS12561811” for “ERS12561827”; details: 2 µM
[4] = as §1, with “WLS-240” for “Z-028”, “human” for “mouse”, “ERS12561773” for “ERS12561827”; details: 2 µM
[5] = as §1, with “Z-008” for “Z-028”, “to” for “to mouse gut”, “ERS12561808” for “ERS12561827”; details: 2 µM
[6] = human gut metagenome, 24 h, 2 µM
[7] = as §1, with “WLS-039” for “Z-028”, “human” for “mouse”, “ERS12561746” for “ERS12561827”; details: 2 µM
[8] = human gut metagenome, 24 h, 2 µM; remark: listed apart in the source
[9] = human gut metagenome, 24 h, 2 µM; remark: listed apart in the source
[10] = as §1, with “WLS-350” for “Z-028”, “human” for “mouse”, “ERS12561789” for “ERS12561827”; details: 2 µM
[11] = as §1, with “WLS-077” for “Z-028”, “human” for “mouse”, “ERS12561750” for “ERS12561827”; details: 2 µM
[12] = human gut metagenome, 24 h, 2 µM; remark: listed apart in the source
[13] = human gut metagenome, 24 h, 2 µM; remark: listed apart in the source
[14] = as §1, with “Z-023” for “Z-028”, “to” for “to mouse gut”, “ERS12561822” for “ERS12561827”; details: 2 µM
[15] = as §1, with “Z-006” for “Z-028”, “ERS12561806” for “ERS12561827”; details: 2 µM
[16] = as §1, with “Z-013” for “Z-028”, “rabbit” for “mouse”, “ERS12561813” for “ERS12561827”; details: 2 µM
[17] = human gut metagenome, 24 h, 2 µM; remark: listed apart in the source
[18] = as §1, with “Z-010” for “Z-028”, “to” for “to mouse gut”, “ERS12561810” for “ERS12561827”; details: 2 µM
[19] = human gut metagenome, 24 h, 2 µM; remark: listed apart in the source
[20] = as §1, with “Z-001” for “Z-028”, “ERS12561801” for “ERS12561827”; details: 2 µM
Note: call rule not given here.

CC(NC(C)(C)C)C(=O)c1cccc(Cl)c1 (stereo not given) [BUPROPION]
Bacterial Biotransformation [1]: Compound NOT metabolized
Bacterial Biotransformation [2]: Compound metabolized
Bacterial Biotransformation [3]: Compound NOT metabolized
Bacterial Biotransformation [4]: Compound NOT metabolized
Bacterial Biotransformation [5]: Compound NOT metabolized
Bacterial Biotransformation [6]: Compound NOT metabolized
Bacterial Biotransformation [7]: Compound NOT metabolized
Bacterial Biotransformation [8]: Compound NOT metabolized
Bacterial Biotransformation [9]: Compound NOT metabolized
Bacterial Biotransformation [10]: Compound NOT metabolized
Bacterial Biotransformation [11]: Compound NOT metabolized
Bacterial Biotransformation [12]: Compound NOT metabolized
Bacterial Biotransformation [13]: Compound NOT metabolized
Bacterial Biotransformation [14]: Compound NOT metabolized
Bacterial Biotransformation [15]: Compound NOT metabolized
Bacterial Biotransformation [16]: Compound metabolized
Bacterial Biotransformation [17]: Compound NOT metabolized
Bacterial Biotransformation [18]: Compound NOT metabolized
Bacterial Biotransformation [19]: Compound NOT metabolized
Bacterial Biotransformation [20]: Compound NOT metabolized

O=C1CC2(CCCC2)CC(=O)N1CCCCN1CCN(c2ncccn2)CC1 [BUSPIRONE]
Bacterial Biotransformation [1]: Compound NOT metabolized
Bacterial Biotransformation [2]: Compound NOT metabolized
Bacterial Biotransformation [3]: Compound NOT metabolized
Bacterial Biotransformation [4]: Compound metabolized
Bacterial Biotransformation [5]: Compound NOT metabolized
Bacterial Biotransformation [6]: Compound NOT metabolized
Bacterial Biotransformation [7]: Compound NOT metabolized
Bacterial Biotransformation [8]: Compound metabolized
Bacterial Biotransformation [9]: Compound NOT metabolized
Bacterial Biotransformation [10]: Compound metabolized
Bacterial Biotransformation [11]: Compound NOT metabolized
Bacterial Biotransformation [12]: Compound NOT metabolized
Bacterial Biotransformation [13]: Compound metabolized
Bacterial Biotransformation [14]: Compound metabolized
Bacterial Biotransformation [15]: Compound NOT metabolized
Bacterial Biotransformation [16]: Compound NOT metabolized
Bacterial Biotransformation [17]: Compound metabolized
Bacterial Biotransformation [18]: Compound metabolized
Bacterial Biotransformation [19]: Compound NOT metabolized
Bacterial Biotransformation [20]: Compound NOT metabolized

CCCC(C)(COC(N)=O)COC(=O)NC(C)C (stereo not given) [CARISOPRODOL]
Bacterial Biotransformation [1]: Compound metabolized
Bacterial Biotransformation [2]: Compound metabolized
Bacterial Biotransformation [3]: Compound metabolized
Bacterial Biotransformation [4]: Compound metabolized
Bacterial Biotransformation [5]: Compound metabolized
Bacterial Biotransformation [6]: Compound NOT metabolized
Bacterial Biotransformation [7]: Compound metabolized
Bacterial Biotransformation [8]: Compound metabolized
Bacterial Biotransformation [9]: Compound metabolized
Bacterial Biotransformation [10]: Compound metabolized
Bacterial Biotransformation [11]: Compound metabolized
Bacterial Biotransformation [12]: Compound metabolized
Bacterial Biotransformation [13]: Compound metabolized
Bacterial Biotransformation [14]: Compound metabolized
Bacterial Biotransformation [15]: Compound metabolized
Bacterial Biotransformation [16]: Compound NOT metabolized
Bacterial Biotransformation [17]: Compound metabolized
Bacterial Biotransformation [18]: Compound metabolized
Bacterial Biotransformation [19]: Compound metabolized
Bacterial Biotransformation [20]: Compound metabolized

COc1ccccc1OCCNCC(O)COc1cccc2[nH]c3ccccc3c12 (stereo not given) [CARVEDILOL]
Bacterial Biotransformation [1]: Compound NOT metabolized
Bacterial Biotransformation [2]: Compound NOT metabolized
Bacterial Biotransformation [3]: Compound NOT metabolized
Bacterial Biotransformation [4]: Compound metabolized
Bacterial Biotransformation [5]: Compound NOT metabolized
Bacterial Biotransformation [6]: Compound metabolized
Bacterial Biotransformation [7]: Compound metabolized
Bacterial Biotransformation [8]: Compound metabolized
Bacterial Biotransformation [9]: Compound NOT metabolized
Bacterial Biotransformation [10]: Compound metabolized
Bacterial Biotransformation [11]: Compound metabolized
Bacterial Biotransformation [12]: Compound metabolized
Bacterial Biotransformation [13]: Compound metabolized
Bacterial Biotransformation [14]: Compound metabolized
Bacterial Biotransformation [15]: Compound NOT metabolized
Bacterial Biotransformation [16]: Compound NOT metabolized
Bacterial Biotransformation [17]: Compound metabolized
Bacterial Biotransformation [18]: Compound metabolized
Bacterial Biotransformation [19]: Compound NOT metabolized
Bacterial Biotransformation [20]: Compound NOT metabolized
